# Measurements reported in ChEMBL document CHEMBL1153400, “Fluorinated isatin derivatives. Part 1: synthesis of new N-substituted (S)-5-[1-(2-methoxymethylpyrrolidinyl)sulfonyl]isatins as potent caspase-3 and -7 inhibitors” (Bioorg Med Chem, 2009).
# pIC50: −log10 of the molar value.
# Columns and labels:
# Caspase-7 = biological target: T1, Caspase-7 (Homo sapiens, UniProt P55210); assay: Inhibition of human recombinant caspase 7
# T1 sequence (P55210 whole entry): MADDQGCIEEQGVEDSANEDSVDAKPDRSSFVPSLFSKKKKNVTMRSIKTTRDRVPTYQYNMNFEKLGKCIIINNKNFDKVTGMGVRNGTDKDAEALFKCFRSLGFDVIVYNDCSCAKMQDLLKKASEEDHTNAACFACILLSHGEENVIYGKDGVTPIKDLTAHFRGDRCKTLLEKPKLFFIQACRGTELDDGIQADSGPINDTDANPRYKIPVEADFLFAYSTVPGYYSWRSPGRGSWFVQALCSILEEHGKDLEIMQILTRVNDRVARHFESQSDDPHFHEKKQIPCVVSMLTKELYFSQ
# Caspase-3 = biological target: T2, Caspase-3 (Homo sapiens, UniProt P42574); assay: Inhibition of human recombinant caspase 3
# T2 sequence (P42574 whole entry): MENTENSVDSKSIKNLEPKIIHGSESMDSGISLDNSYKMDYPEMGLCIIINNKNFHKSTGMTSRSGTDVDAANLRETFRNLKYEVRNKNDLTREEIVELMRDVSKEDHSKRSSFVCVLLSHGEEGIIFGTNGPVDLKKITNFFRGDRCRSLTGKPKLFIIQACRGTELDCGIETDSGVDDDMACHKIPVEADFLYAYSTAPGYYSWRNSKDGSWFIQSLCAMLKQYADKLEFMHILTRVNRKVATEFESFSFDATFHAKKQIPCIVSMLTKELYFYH
Compound,pIC50 (Caspase-7),pIC50 (Caspase-3)
COC[C@@H]1CCCN1S(=O)(=O)c1ccc2c(c1)C(=O)C(=O)N2,6.77,–
CCN1C(=O)C(=O)c2cc(S(=O)(=O)N3CCC[C@H]3COC)ccc21,6.50,6.74
COC[C@@H]1CCCN1S(=O)(=O)c1ccc2c(c1)C(=O)C(=O)N2CCCOCCCOS(C)(=O)=O,< 4.00,< 4.00
CCCN1C(=O)C(F)(F)c2cc(S(=O)(=O)N3CCC[C@H]3COC)ccc21,< 4.00,< 4.00
COC[C@@H]1CCCN1S(=O)(=O)c1ccc2c(c1)C(=O)C(=O)N2CCCOCCCO,3.95,–
COC[C@@H]1CCCN1S(=O)(=O)c1ccc2c(c1)C(=O)C(=O)N2CCCOCCCF,< 4.00,< 4.00

# Now those with a higher pIC50 (Caspase-7), led by results:
pIC50 (Caspase-7),pIC50 (Caspase-3),Compound
7.24,8.28,CCCN1C(=O)C(=O)c2cc(S(=O)(=O)N3CCC[C@H]3COC)ccc21
8.09,7.54,CCCCN1C(=O)C(=O)c2cc(S(=O)(=O)N3CCC[C@H]3COC)ccc21
7.55,7.39,COC[C@@H]1CCCN1S(=O)(=O)c1ccc2c(c1)C(=O)C(=O)N2CCCCF
